Where a name gives a salt, the structure may show the parent alone. Read-outs that look alike come from different tables or passages of the source.
What was measured:
Format in all cases: physicochemical
[1] = Bulk physical and chemical stability (degradation under stress conditions)
Text: Five hydrated forms of the di-hydrochloride salt were identified, which included the crystalline di-hydrochloride monohydrate salt of 4-(2-((1R,2R)-2-hydroxycyclohexylamino)benzothiazol-6-yloxy)-N-methylpicolinamide (Form A) discussed herein.

[2] = Intrinsic dissolution rate; conditions: pH 4.5; Form A versus Form B
Aqueous solubility = conditions: aqueous medium, aqueous buffer
Experimental: (§1) The crystalline di-hydrochloride monohydrate salt of 4-(2-((1R,2R)-2-hydroxycyclohexylamino)benzothiazol-6-yloxy)-N-methylpicolinamide (Form A) exists primarily as a crystalline material. Form A is hygroscopic, having a maximum water uptake of about 10.79% at 25° C. and up to 95% relative humidity (RH)). […] Form A has a very low aqueous solubility at neutral pH (about 0.006 mg/mL), however it has a high aqueous solubility at low pH (about >20 mg/mL).

[3] = Hygroscopicity (water uptake / exposure to humidity)
Experimental: as §1

Compound: CNC(=O)c1cc(Oc2ccc3nc(N[C@@H]4CCCC[C@H]4O)sc3c2)ccn1 [Form A, Di-Hydrochloride Monohydrate Salt of 4-(2-((1R,2R)-2-hydroxycyclohexylamino)benzothiazol-6-yloxy)-N-methylpicolinamide]
- thermodynamic stability compared to the other four hydrated forms ([1]; ambient conditions): more thermodynamically stable hydrate
- degradation of bulk drug substance ([1]; one to two weeks at 50° C., 75% relative humidity): less than 1%
- degradation of bulk drug substance ([1]; one to two weeks at 50° C., ambient relative humidity): less than 1%
- degradation of bulk drug substance ([1]; one week at 80° C., ambient relative humidity): less than 1%
- intrinsic dissolution rate relative to mono-hydrochloride salt (Form B) [2]: about 150 fold
- solubility (Aqueous solubility; low pH, read-out: aqueous solubility at low pH): > 20000 µg/mL
- solubility (Aqueous solubility; neutral pH, read-out: aqueous solubility at neutral pH): ~6 µg/mL
- maximum water uptake ([3]; 25° C., up to 95% relative humidity (RH)): about 10.79%
- phase change on exposure to humidity ([3]; exposure to humidity): little to no phase change

— patent publication US10934273B2, “Crystalline forms of 4-(2-((1R,2R)-2-hydroxycyclohexylamino)benzothiazol-6-yloxy)-N-methylpicolinamide” (Novartis AG, priority 2016, dated 2021)
